Reference: patent publication US10584157B2 (priority 2015, dated 2020)
“And” between values parts separate entries of the source, which are not always exact repeats. Identical values can stand only once. “Also recorded” adds a separate entry of the source. Like-named read-outs stand apart in the source and are kept apart here. Square brackets hold non-standard residues; d marks the D form. Ends that are not written are not given here. Peptide text beside a SMILES is read from it.

Key:
SEB = SEB (Staphylococcus aureus, UniProt P01552); experiment: biochemical; format: binding, S. aureus; conditions: for kon: read-out: Ka (1/Ms), association rate; for koff: read-out: Kd (1/s), dissociation rate
Sequence of SEB (P01552 28-266 limits assumed): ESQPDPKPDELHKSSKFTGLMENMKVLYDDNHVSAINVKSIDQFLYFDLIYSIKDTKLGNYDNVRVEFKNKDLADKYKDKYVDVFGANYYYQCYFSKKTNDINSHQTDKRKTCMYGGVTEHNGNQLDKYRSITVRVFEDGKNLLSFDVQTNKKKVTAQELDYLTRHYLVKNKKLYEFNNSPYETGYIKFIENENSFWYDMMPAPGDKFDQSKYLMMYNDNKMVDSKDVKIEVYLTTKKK

TSST-1 = TSST-1 (Staphylococcus aureus, UniProt P06886); experiment: biochemical; format: binding, S. aureus; conditions: for kon: read-out: Ka (1/Ms), association rate; for koff: read-out: Kd (1/s), dissociation rate
Sequence of TSST-1 (P06886 41-234 limits assumed): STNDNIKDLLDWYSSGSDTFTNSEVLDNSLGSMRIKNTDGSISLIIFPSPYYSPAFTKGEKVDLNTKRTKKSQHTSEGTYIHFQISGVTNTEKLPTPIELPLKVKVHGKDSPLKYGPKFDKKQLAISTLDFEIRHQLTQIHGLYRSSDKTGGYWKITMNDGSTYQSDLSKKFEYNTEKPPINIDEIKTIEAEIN

SMEZ = format: binding, Streptococcus pyogenes
PBMC induced with SEB = format: cell-based, human
cell-surface B7-2 = format: binding, human
Sequence of cell-surface B7-2 (P01552 28-266 limits assumed): as the sequence (P01552 28-266 limits assumed) above

cell-surface CD28 [1] = format: binding
Sequence of cell-surface CD28 (P01552 28-266 limits assumed): as above

cell-surface CD28 [2] = target: cell-surface CD28 (Staphylococcus aureus, UniProt P01552); conditions: cited from earlier work
Sequence of cell-surface CD28 (Staphylococcus aureus, UniProt P01552) (P01552 28-266 limits assumed): as above

[3] = test system: PBMC induced with αCD3/αCD28; format: cell-based, human
[4] = test system: SEB lethality in D-galactosamine-sensitized mice; format: in vivo, BALB/c mice
[5] = test system: PBMC induced with E. coli LPS; format: cell-based, human
PBMC induced with αCD3 = format: cell-based, human

CSCC[C@H](NC(=O)[C@H](Cc1ccc(O)cc1)NC(=O)[C@H](CCCCN)NC(=O)[C@H](CO)NC(=O)[C@H](Cc1c[nH]cn1)NC(=O)[C@@H](NC(=O)[C@H](CO)NC(=O)[C@H](CC(=O)O)NC(=O)[C@H](Cc1ccccc1)NC(=O)[C@H](CCCCN)NC(=O)[C@@H](N)CCC(=O)O)C(C)C)C(=O)O [pB2-4] (H-EKFDSVHSKYM-OH; N-terminus and C-terminus assumed)
kon (SEB): 413 M⁻¹ s⁻¹ | koff (SEB): 0.000958 s⁻¹ | kon (TSST-1): 4080 M⁻¹ s⁻¹ | koff (TSST-1): 0.0277 s⁻¹ | Ka (1/Ms), association rate (SMEZ): 3,020 1/Ms | Kd (1/s), dissociation rate (SMEZ): 0.00293 s⁻¹ | inhibition of SEB-mediated induction of IFN-γ (PBMC induced with SEB): only partially | inhibition of SEB-mediated induction of IL-2 (PBMC induced with SEB): only partially | inhibition of SEB-mediated induction of TNF-α (PBMC induced with SEB): only partially

CC(C)C[C@H](NC(=O)[C@@H](NC(=O)[C@H](Cc1c[nH]c2ccccc12)NC(=O)[C@H](CO)NC(=O)[C@H](CC(=O)O)NC(=O)[C@H](CO)NC(=O)[C@@H](N)CC(=O)O)[C@@H](C)O)C(=O)N[C@@H](CCCNC(=N)N)C(=O)O [pB2-6] (H-DSDSWTLR-OH; N-terminus and C-terminus assumed)
kon (SEB): 491 M⁻¹ s⁻¹ | koff (SEB): 0.0019 s⁻¹ | kon (TSST-1): 2530 M⁻¹ s⁻¹ | koff (TSST-1): 0.00304 s⁻¹ | Ka (1/Ms), association rate (SMEZ): 1,590 1/Ms | Kd (SMEZ): 1.79 µM | Kd (1/s), dissociation rate (SMEZ): 0.00286 s⁻¹ | inhibition of SEB-mediated induction of IFN-γ (PBMC induced with SEB): only partially | inhibition of SEB-mediated induction of IL-2 (PBMC induced with SEB): only partially | inhibition of SEB-mediated induction of TNF-α (PBMC induced with SEB): only partially

HVKGKHLCP [p1TA, reference compound]
inhibition of binding of SEB to cells expressing B7-2 (cell-surface B7-2): equally inhibited | blocking of binding of SEB to cell-surface CD28 (cell-surface CD28 [1]): capable of blocking | blocking of binding of SEB to cell-surface CD28 (cell-surface CD28 [2]): abrogated

MGRTSFDSDS [pB2-7]
inhibition of SEB-mediated induction of IFN-γ (PBMC induced with SEB): inhibited | inhibition of SEB-mediated induction of IL-2 (PBMC induced with SEB): inhibited | inhibition of SEB-mediated induction of IL-10 (PBMC induced with SEB): did not inhibit | inhibition of SEB-mediated induction of TNF-α (PBMC induced with SEB): inhibited | attenuation of IFN-γ expression induced by αCD3/αCD28 [3]: significant attenuation | attenuation of TNF-α expression induced by αCD3/αCD28 [3]: significant attenuation

SPMLVAYD [p2TA, reference compound]
inhibition of binding of SEB to cells expressing B7-2 (cell-surface B7-2): equally inhibited | blocking of binding of SEB to cell-surface CD28 (cell-surface CD28 [1]): capable of blocking | blocking of binding of SEB to cell-surface CD28 (cell-surface CD28 [2]): abrogated

[dA]DLPCQFANSQN[dA] [D-Ala-pB2-2]
inhibition of SEB-mediated induction of IFN-γ (PBMC induced with SEB): failed to inhibit | inhibition of binding of SEB to cells expressing B7-2 (cell-surface B7-2): did not inhibit binding

[dA]DSDSWTLR[dA] [D-Ala-pB2-6]
effect on SEB-mediated induction of IL-10 (PBMC induced with SEB): resistant | inhibition of SEB-mediated induction of IFN-γ (PBMC induced with SEB): strongly inhibitory | inhibition of SEB-mediated induction of IL-2 (PBMC induced with SEB): inhibited | inhibition of SEB-mediated induction of TNF-α (PBMC induced with SEB): inhibited | inhibition of binding of SEB to cells expressing B7-2 (cell-surface B7-2): effectively blocked | blocking of binding of SEB to cell-surface CD28 (cell-surface CD28 [1]): capable of blocking | survival of SEB challenge (mice surviving/group) ([4]; n=5): 5/5 | attenuation of LPS-mediated induction of TNF-α [5]: sensitive to attenuation; also recorded: reduced

[dA]EKFDSVHSKYM[dA] [D-Ala-pB2-4]
effect on SEB-mediated induction of IL-10 (PBMC induced with SEB): resistant | inhibition of SEB-mediated induction of IFN-γ (PBMC induced with SEB): strongly inhibitory | inhibition of SEB-mediated induction of IL-2 (PBMC induced with SEB): inhibited | inhibition of SEB-mediated induction of TNF-α (PBMC induced with SEB): inhibited | inhibition of binding of SEB to cells expressing B7-2 (cell-surface B7-2): effectively blocked | blocking of binding of SEB to cell-surface CD28 (cell-surface CD28 [1]): capable of blocking | survival of SEB challenge (mice surviving/group) ([4]; n=5): 4/5 | inhibition of CD28 signaling, IFN-γ induced by αCD3/αCD28 [3]: inhibition | inhibition of CD28 signaling, TNF-α induced by αCD3/αCD28 [3]: inhibition | attenuation of LPS-mediated induction of TNF-α [5]: sensitive to attenuation; also recorded: reduced

[dA]HHKKPTGMIR[dA] [D-Ala-pB2-3]
inhibition of SEB-mediated induction of IFN-γ (PBMC induced with SEB): failed to inhibit

[dA]MGRTSFDSDS[dA] [D-Ala-pB2-7]
inhibition of binding of SEB to cells expressing B7-2 (cell-surface B7-2): likewise blocked | blocking of binding of SEB to cell-surface CD28 (cell-surface CD28 [1]): capable of blocking | survival of SEB challenge (mice surviving/group) ([4]; n=6): protected and 6/6 | induction of an IFN-γ response by the peptide alone (PBMC induced with αCD3): at neither concentration | inhibition of induction of IFN-γ by αCD3 (PBMC induced with αCD3): did not inhibit | attenuation of LPS-mediated induction of TNF-α [5]: reduced

[dA]MLKIQAY[dA] [D-Ala-pB2-5]
inhibition of SEB-mediated induction of IFN-γ (PBMC induced with SEB): failed to inhibit
